Experimental data as given in publication PMC9786284, “Synthesis and Antiproliferative Effect of Halogenated Coumarin Derivatives” (Molecules, 2022).

Assays:
Assay type in all cases: cell-based
[1] = system: Nthy-ori3-1 cells; assay: Intracellular reduced and oxidized glutathione (GSH/GSSG) by HPLC-ECD; conditions: 20 µM, 24 h
Protocol: (§1) Redox perturbation was further investigated by measuring intracellular antioxidant species. In Nthy-ori3-1 cells, coumarin 2k at 20 µM improved the GSH concentration measured as GSH/GSSG ratio (p < 0.001), leading to values close to 200% with respect to the untreated cells (100%), while coumarin 2h increased the level of GSH but with less evidence (about 40% more than the untreated control cells, p < 0.01) (Figure 4). […] The Keap1/Nrf2/ARE system is a mechanism that plays a key role in the pathogenesis and progression of several diseases. It is a central defensive mechanism against oxidative stress.
(§2) Reduced glutathione (GSH) and oxidized glutathione (GSSG) levels were determined with high-performance liquid chromatography coupled with an electrochemical detector (HPLC-ECD), as described in previous studies. In detail, Nthy-ori3-1 and TPC-1 cells were seeded in 6-well plates at the density of 1 × 10^5 cells/2 mL and incubated for 24 h. Cells were then treated with 2k and 2h (20 µM) for 24 h. After the incubation, cells were scraped and extracted with 150 µL of 10% meta-phosphoric acid and 150 µL of 0.05% trifluoroacetic acid (TFA) (Merck, Milan, Italy) solution. After centrifugation, 10 µL of supernatant was collected for protein determination, and the remaining part was injected into the HPLC system. GSH and GSSG amounts were measured using an HPLC (Agilent 1260 infinity, Agilent Technologies, Palo Alto, CA, USA) equipped with an electrochemical detector (DECADE II Antec, Leyden, The Netherlands) and an Agilent interface 35900E. A calibration curve was created using standards of GSH and GSSG (Merck, Milan, Italy), injected with different concentrations. Data were collected and expressed as a percentage of the control cells (100%) of the ratio between GSH and GSSG normalized using µg of total proteins.

[2] = system: TPC-1 cells; assay: as above; conditions: 20 µM, 24 h, untreated cells 100%
Protocol: as §1, §2

[3] = MTT cell viability assay; conditions: human, MTT, 24 h, concentration required to inhibit cell proliferation by 50%, mean ± SD
Protocol: (§3) The cytotoxic effect of coumarins 2a–k was tested on several cancer and normal cell lines: lung cancer cell line (SK-MES-1), thyroid cancer cell lines (K-1; B-CPAP ant TPC-1), lung fibroblast (MRC-5) and thyroid normal cell line (Nthy-ori-3-1) by MTT (3-[4,5-dimethylthiazol-2-yl]-2,5 diphenyltetrazolium bromide) assay.
(§4) The papillary thyroid carcinoma (PTC)-derived cell lines (TPC-1 and B-CPAP) were kindly provided by Dr. Fusco (Medical School, University Federico II of Naples, Naples, Italy). K-1 PTC-derived cell line and non-tumorigenic thyroid Nthy-ori-3-1 cell line were purchased from Health Protection Agency Culture Collections. The PTC-derived cell lines were maintained in DMEM/F12 (Gibco-BRL. Life Technologies, Milan, Italy)] supplemented with 10% fetal bovine serum (Gibco-BRL) at 37 °C in humidified 5% CO2. SK-MES-1 and MRC-5 were purchased from American Type Culture Collection (ATCC) and were maintained in Mem-E medium, supplemented with 10% fetal bovine serum, 100 units/mL penicillin G, and 100 μg/mL streptomycin (Gibco-BRL) at 37 °C in humidified 5% CO2.
(§5) The effect of test compounds on the viability of cells was detected by MTT assay. The thyroid cells (7.5 × 10^3 cells/mL), SK-MES-1, and MRC-5 (8 × 10^4 cells/mL) were seeded into a 96-well plate and allowed to adhere for 16 h to culture plates before the addition of the compounds.
(§6) Then, compounds were added at different concentrations (0.8–100 μM), and cells were further incubated for 24 h. Cells with no treatment were used as a negative control. After incubation, cells were treated with MTT solution for 3 h at 37 °C. Then, the MTT solution was removed, and 150 µL of DMSO was added to the wells. The absorbances were measured at 570 nm using a TECAN microplate reader (Infinite 200, Tecan, Salzburg, Austria). Viability data were reported as % of control (untreated cells) for each cell line.

[4] = system: SK-MES-1 lung cancer cell line; assay: MTT cell viability assay; conditions: Homo sapiens; SK-MES-1; MTT, 24 h; concentration required to inhibit cell proliferation by 50%; mean ± SD; read-out: CC50
Protocol: as §3, §4, §5, §6

[5] = system: TPC-1 thyroid cancer cell line; assay: MTT cell viability assay; conditions: Homo sapiens, TPC1; TPC-1; MTT, 24 h; concentration required to inhibit cell proliferation by 50%; mean ± SD; read-out: CC50
Protocol: as §3, §4, §5, §6

[6] = system: K-1 thyroid cancer cell line; assay: MTT cell viability assay; conditions: K-1; MTT, 24 h; concentration required to inhibit cell proliferation by 50%; mean ± SD; read-out: CC50
Protocol: as §3, §4, §5, §6

[7] = system: B-CPAP thyroid cancer cell line; assay: MTT cell viability assay; conditions: Homo sapiens, BCPAP; B-CPAP; MTT, 24 h; concentration required to inhibit cell proliferation by 50%; mean ± SD; read-out: CC50
Protocol: as §3, §4, §5, §6

[8] = system: Nthy-ori-3-1 cells; assay: Intracellular ROS production (H2-DCF-DA probe); conditions: only with 100 μM
Protocol: (§7) It has been reported that coumarins and their derivatives are able to regulate the reactive oxygen species (ROS). For example, esculetin induces cytotoxicity in pancreatic cancer cells decreasing ROS and protein levels of the ROS-dependent transcription factor NF-κB [49]. On the other end, coumarins induce the generation and accumulation of ROS in cancer cells causing cell cycle arrest and apoptotic cell death. […] Conversely, 2h produces an antiproliferative response in TPC-1 cells by scavenging ROS. In an attempt of a better understanding of the results, such compounds were explored from an electrochemical point of view by means of cyclic voltammetry in anhydrous acetonitrile.
(§8) PTC-derived and control cells were seeded in 96-well plates (7.5 × 10^3/mL) to detect intracellular ROS production and grown for 24 h. Cells were then washed with PBS 1X solution and incubated for 30 min with 2′,7′-dichlorofluorescein diacetate probe (H2-DCF-DA) (Merck, Milan, Italy) (10 μM), as previously described. […] After 1 h of incubation, excess H2-DCF-DA was removed and replaced with PBS, and then ROS levels were measured by using a microplate reader (Infinite 200, Tecan, Salzburg, Austria) at a controlled temperature of 37 °C. The measurement was performed using an excitation of 490 nm and an emission of 520 nm. ROS production was evaluated for 2 h and monitored, taking readings at intervals of 5 min.

[9] = system: TPC-1 cells; assay: Intracellular ROS production (H2-DCF-DA probe); conditions: 20 and 100 μM, 30 to 120 min
Protocol: as §7, §8

[10] = Nthy-ori-3-1 normal thyroid cells, Nthy-ori-3-1

N#Cc1cc2cc(I)cc(I)c2oc1=O [2k, 6,8-diiodo-2-oxo-2H-chromene-3-carbonitrile]
GSH/GSSG ratio, percentage of untreated cells ([1]; untreated cells 100%): about 200%
GSH/GSSG ratio, percentage of untreated cells [2]: about 200%
CC50 at 24 h ([3]; MRC-5 lung fibroblasts, MRC-5): > 100 µM
CC50 at 24 h [3, 10]: > 100 µM
CC50 [4]: > 100 µM
CC50 [5]: 44 ± 5.5 µM
CC50 [6]: 57 ± 5 µM
CC50 [7]: 46 ± 0.2 µM
effect on ROS [8]: pro-oxidant
ROS generation [9]: significant increase in ROS generation

N#Cc1cc2cc(Br)cc(Br)c2oc1=O [2h, 6,8-dibromo-2-oxo-2H-chromene-3-carbonitrile]
increase in level of GSH over untreated control cells ([1]; more than the untreated control): about 40%
GSH/GSSG ratio, percentage of untreated cells [2]: up to 500%
CC50 at 24 h ([3]; MRC-5 lung fibroblasts, MRC-5): > 100 µM
CC50 at 24 h [3, 10]: > 100 µM
CC50 [4]: > 100 µM
CC50 [5]: 90 ± 3.5 µM
CC50 [6]: 60 ± 3 µM
CC50 [7]: > 100 µM
effect on ROS [8]: antioxidant
ROS generation [9]: decreased ROS generation
